Experimental data: patent publication US20200037609A1, “HERBICIDAL COMPOSITIONS AND METHODS OF USE THEREOF” (The Regents of the University of California, priority 2017, published 2020)
“Also recorded” adds a separate entry of the source. Where two headings read alike, the source gives them in different places.

Experiments:
[1] = tested on: glufosinate resistant A. thaliana; assay: Plant growth inhibition assay by spraying (250 μM AA in Finale + ethanol); type: in vivo, Arabidopsis thaliana; conditions: glufosinate resistant plants without astD, listed as AA
Description: (§1) Plant growth inhibition assay by spraying. AA was firstly dissolved in ethanol and then added to solvent (0.06 g/L Finale® Bayer Inc.+20 g/L EtOH). The control plants were treated with solvent containing ethanol only. A. thaliana that are resistant to glufosinate (containing the bar gene) were grown under long day conditions (16/8 h light/dark) using cool-white fluorescence bulbs as the light resource at 23° C. Spraying treatments began when the seeds germinated, and was repeated once every two days with approximately 0.4 mL AA solution per time per pot.

[2] = tested on: pollen development in Arabidopsis thaliana; conditions: literature, cited from earlier work
AstD = biological target: T1, AstD (Aspergillus terreus, UniProt Q0CPG9); assay: DHAD enzymatic inhibition assay (phenylhydrazine derivatization, LC-MS); type: biochemical; conditions: 8 mM aspterric acid
T1 construct: […]; 6xHis; made in house; host or cells: E. coli BL21 (DE3)
T1 sequence (Q0CPG9 112-598): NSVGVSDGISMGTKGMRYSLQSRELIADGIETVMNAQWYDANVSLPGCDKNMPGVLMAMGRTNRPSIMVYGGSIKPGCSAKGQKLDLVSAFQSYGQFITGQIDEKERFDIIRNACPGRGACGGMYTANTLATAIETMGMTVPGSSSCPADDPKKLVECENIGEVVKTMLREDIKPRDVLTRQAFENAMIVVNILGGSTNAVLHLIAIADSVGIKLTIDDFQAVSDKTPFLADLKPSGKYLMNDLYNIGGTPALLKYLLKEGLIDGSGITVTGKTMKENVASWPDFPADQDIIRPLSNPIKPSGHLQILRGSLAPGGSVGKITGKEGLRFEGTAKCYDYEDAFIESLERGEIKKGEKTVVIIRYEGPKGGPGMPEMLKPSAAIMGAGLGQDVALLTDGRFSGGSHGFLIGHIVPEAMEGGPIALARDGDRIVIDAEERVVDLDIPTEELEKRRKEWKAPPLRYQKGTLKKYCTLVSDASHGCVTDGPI
Description: Enzymatic activity reactions were carried out in […] volumes containing 50 mM storage buffer, 10 mM (±)-Sodium 2,3-dihydroxyisovalerate hydrate (DHAD substrate) and 1 μM purified DHAD enzyme. After incubation for 30 minutes at 30° C., the reaction was stopped by adding an equal volume of ethanol. 1/10 volumes of 100 mM phenylhydrozine was added at room temperature for 30 minutes to derivatize the DHAD-synthesized molecule (3-methyl-2-oxo-butanoic acid) into a detectable derivatization product (DDP). See FIG. 5A for an overview of reactions.
Inhibition assays were carried out according to the reactions described above by incubating purified DHAD enzymes (either the housekeeping DHAD from Aspergillus terreus, the housekeeping DHAD from Arabidopsis thaliana, or AstD from Aspergillus terreus) with aspterric acid at various concentrations. For AstD, up to 8 mM of aspterric acid was tested. Derivatization with phenylhydrozine, LC-MS analysis, and DDP detection by UV absorption at 350 nm was carried out. The half maximal inhibitory concentration (IC50) and the effect of aspterric acid on the enzyme kinetics of each purified DHAD enzyme was calculated based on the initial reaction rates observed in the inhibition assays.
Biochemical assay of DHADs. […] The area of the HPLC peak with UV absorption at 350 nm was used to quantify the amount of 6. […]

[3] = tested on: S. cerevisiae ΔILV3 expressing AstD; assay: Growth inhibition of S. cerevisiae ΔILV3 in ILV dropout media; type: cell-based; conditions: Saccharomyces cerevisiae, read-out: IC50 of growth inhibition, yeast expressing AstD
Description: Growth inhibition assay of S. cerevisiae on plates or in the tubes. S. cerevisiae was grown in isoleucine, leucine and valine (ILV) dropout media (20 g/L glucose, 0.67 g/L Difco™ Yeast Nitrogen Base w/o amino acids, 18 mg/L adenine, arginine 76 mg/L, asparagine 76 mg/L, aspartic acid 76 mg/L, glutamic acid 76 mg/L, histidine 76 mg/L, lysine 76 mg/L, methionine 76 mg/L, phenylalanine 76 mg/L, serine 76 mg/L, threonine 76 mg/L, tryptophan 76 mg/L, tyrosine 76 mg/L) to test growth inhibition of AA on S. cerevisiae. S. cerevisiae was incubated at 28° C. until OD600 of the control strain without AA treatment reached about 0.8. The ratio of yeast OD600 in media with AA treatment to yeast OD600 in media without AA was calculated as the percentage of growth inhibition. The inhibition curve was plotted as percentage of inhibition versus AA concentrations. […] The growth curves of TY05, TY06 and TY07 were also plotted (FIG. 29A-29D). The OD600 was recorded for every 20 minutes over a total of 50 h. The inhibition percentage can be calculated by following equation: […]

[4] = tested on: Arabidopsis thaliana Col-0 flowers; assay: Cross experiment, AA as chemical hybridization agent; type: in vivo; conditions: 250 μM AA; for offspring obtained: listed as AA
Description: Flowers of Arabidopsis thaliana Col-0 plants were treated with aspterric acid. The treated flowers that were missing all six fertile stamens were selected as the female parent in a cross with a male parent of known genetic identity. Non-treated Arabidopsis plants containing a BASTA resistant gene were used as male parent to donate pollen to the plants where the flowers were missing all six fertile stamens. 2-week old F1 progeny resulting from the cross were treated with Finale (11.3% Glufosinate-ammonium) at a 1:2000 dilution.
To make male sterile A. thaliana, AA was added to chemical hybridization agent (CHA) formulation (250 μM AA, 2% ethanol, 0.1% Tween-80, 1% corn oil in water), which has less inhibition effect on the growth of A. thaliana. Flowers of the AA treated Col-0 were selected as the female parent. […] 2-week old F1 progeny resulting from the cross were treated by Finale (11.3% glufosinate-ammonium) at 1:2000 dilution.

[5] = tested on: astD transgene-expressing A. thaliana; assay: AA resistance of astD transgenic plants (media and spray); type: in vivo, Arabidopsis thaliana
Description: Growth inhibition assay of plants on plates or in the tubes. MS (2.16 g/L Murashige and Skoog basal medium, 8 g/L sucrose, 8 g/L agar) media was used to test the growth inhibition of AA on A. thaliana, Solanum lycopersicum, and Zea mays. A. thaliana, S. lycopersicum, G. max and Z. mays were grown under long day condition (16/8 h light/dark) using cool-white fluorescence bulbs as the light resource at 23° C. AA was dissolved in ethanol and added to the media before inoculating strains or growing plants. The media of control treatment contains the same amount of ethanol, but without AA.
as §1
The coding sequence of AstD was codon optimized for A. thaliana. A chloroplast localization signal (CLS) of 35-amino acid residues derived from the N-terminal of A. thaliana DHAD (SEQ ID NO: 19) was fused to N-terminus of the codon optimized AstD. […]

[6] = female AA treated wild type x male un-treated glufosinate resistant plant

Compound: CC(C)=C1CC[C@]23CO[C@H](C2)[C@@](O)(C(=O)O)CC[C@@H]13 [aspterric acid]
- plant growth after spray of AA in Finale [1]: severely inhibited plant growth; also recorded: strong growth inhibitory phenotype
- inhibition of pollen development in A. thaliana (previously reported) [2]: inhibit pollen development
- inhibition of pollen development in A. thaliana (previously reported) ([2]; listed as AA): inhibitory activity towards pollen development
- inhibition of AstD (AstD): no inhibition
- inhibition of AstD (AstD; listed as AA): not inhibited
- IC50 [3]: ~200 µM
- offspring obtained ([4]; female AA treated wild type x male AA treated glufosinate resistant plant): No offspring was obtained and No
- inherit resistance [4, 6]: Yes
- offspring obtained [4, 6]: Offspring was obtained and Yes
- growth of astD transgenic plants on media ([5]; 100 μM AA): relatively unaffected
- growth of T2 astD transgenic plants after spray ([5]; 250 μM AA + glufosinate ammonium): no observable growth defects
